We go through 52 compounds from ChEMBL document CHEMBL1124311, “Synthesis and antiallergy activity of 4-(diarylhydroxymethyl)-1-[3-(aryloxy)propyl]piperidines and structurally related compounds” (J Med Chem, 1989).

Each structure is given as a SMILES string.

What all share (assay type): functional, organism-based
The subject of test [1] is Rattus norvegicus. Kind of test: Oral antiallergy activity in the passive foot anaphylaxis (PFA) model of rat, at a dose of 10 (mg/kg); not significantly different from negative control group.
Test [2] concerns Rattus norvegicus. Kind of test: Oral antiallergy activity in the passive foot anaphylaxis (PFA) model of rat, at a dose of 3.16 (mg/kg); Activity between positive and negative control groups.
Test [3] relates to Rattus norvegicus. Kind of test: Oral antiallergy activity in the passive foot anaphylaxis (PFA) model of rat, at a dose of 10 (mg/kg); Activity between positive and negative control groups.
Test [4] deals with Rattus norvegicus. Kind of test: Oral antiallergy activity in the passive foot anaphylaxis (PFA) model of rat, at a dose of 3.16 (mg/kg); not significantly different from negative control group.

As for `CC(C)(C)c1ccc(OCCCN2CCC(C(O)(c3ccc(F)cc3)c3ccc(F)cc3)CC2)cc1`, the PFA entry in the test on Rattus norvegicus [1] was “Not significantly different from negative control group”.
Consider `COc1cc(C(C)=O)ccc1OCCCCCN1CCC(C(O)(c2ccc(F)cc2)c2ccc(F)cc2)CC1`, for which the PFA result is “Activity between positive and negative control groups” with Rattus norvegicus [2]; “Activity between positive and negative control groups” with Rattus norvegicus [3].
Turning to `OC(c1ccc(F)cc1)(c1ccc(F)cc1)C1CCN(CCCSc2ccccc2)CC1`, the PFA entry with Rattus norvegicus [3] is “Activity between positive and negative control groups”.
Consider `COC(=O)c1ccc(OCCCN2CCC(C(O)(c3ccccc3)c3ccccc3)CC2)cc1`, for which the PFA entry in the test with Rattus norvegicus [1] was “Not significantly different from negative control group”.
Still for that read-out and setting: for `O=C(CCCN1CCC(C(O)(c2ccc(F)cc2)c2ccc(F)cc2)CC1)c1ccccc1` the value was “Not significantly different from negative control group”.
For the compound `COc1cc(C(C)=O)ccc1OCCCN1CCC(C(O)(c2ccc(F)cc2)c2ccc(F)cc2)C1` (stereo unspecified), the PFA result in the test with Rattus norvegicus [1] is “Not significantly different from negative control group”.
Same read-out and setting: for `OC(c1ccc(F)cc1)(c1ccc(F)cc1)C1CCN(CCCOc2ccc(-c3ccccc3)cc2)CC1` the value was “Not significantly different from negative control group”; for `COc1cc(C(C)=O)ccc1OCCCN1CCCCC1`, “Not significantly different from negative control group”.
On to `CC(=O)c1cccc(OCCCN2CCC(C(O)(c3ccc(F)cc3)c3ccc(F)cc3)CC2)c1`, for which the PFA entry in the test on Rattus norvegicus [4] is “Activity between positive and negative control groups”; in the test with Rattus norvegicus [3], “Activity between positive and negative control groups”.
With `COc1cc(C(C)=O)ccc1OCCCN1CCC(C(O)(c2ccccc2)c2cccc(C(F)(F)F)c2)CC1` (stereo unspecified), the PFA result in the test with Rattus norvegicus [1] was “Not significantly different from negative control group”.
Still for that read-out and setting: for `COc1cc(C(C)=O)ccc1OCCCN1CCC(c2ccccc2)CC1` the value was “Not significantly different from negative control group”; for `COc1cc(C(C)=O)ccc1OCCCN1CCC(Cc2ccccc2)CC1`, “Not significantly different from negative control group”.
Still for that read-out and setting: for `COc1cc(C(C)=O)ccc1OCCCN1CCC(C(C#N)(c2ccccc2)c2ccccc2)CC1` the value was “Not significantly different from negative control group”.
Regarding `CN(CCCN1CCC(C(O)(c2ccc(F)cc2)c2ccc(F)cc2)CC1)c1ccccc1`, the PFA result in the test with Rattus norvegicus [2] was “Activity between positive and negative control groups”; in the test on Rattus norvegicus [3], “Activity between positive and negative control groups”.
On to `NS(=O)(=O)c1ccc(OCCCN2CCC(C(O)(c3ccc(F)cc3)c3ccc(F)cc3)CC2)cc1`, for which the PFA entry in the test on Rattus norvegicus [4] was “Activity between positive and negative control groups”; in the test with Rattus norvegicus [3], “Activity between positive and negative control groups”.
As to `Cc1ccccc1OCCCN1CCC(C(O)(c2ccc(F)cc2)c2ccc(F)cc2)CC1`, the PFA entry in the test with Rattus norvegicus [3] is “Activity between positive and negative control groups”.
On to `N#Cc1ccc(OCCCN2CCC(C(O)(c3ccc(F)cc3)c3ccc(F)cc3)CC2)cc1`, for which the PFA result in the test on Rattus norvegicus [1] is “Not significantly different from negative control group”.
With `OC(c1ccc(F)cc1)(c1ccc(F)cc1)C1CCN(CCCOc2ccccc2OCc2ccccc2)CC1`, the PFA entry in the test with Rattus norvegicus [3] was “Activity between positive and negative control groups”.
Regarding `OC(c1ccc(F)cc1)(c1ccc(F)cc1)C1CCN(CCCOc2ccc(F)cc2)CC1`, the PFA result in the test on Rattus norvegicus [1] was “Not significantly different from negative control group”.
On the same count and under the same terms, for `COc1cc(C(C)=O)ccc1OCCCN1CCC(C(O)(c2cccc(F)c2)c2cccc(F)c2)CC1` the value was “Not significantly different from negative control group”; for `COc1cc(C(C)=O)ccc1OCCCN1CCC(C(O)(c2ccccc2)C2CCCCC2)CC1` (stereo unspecified), “Not significantly different from negative control group”.
Same read-out and setting: for `COc1cc(C(C)=O)ccc1OCCCN1CCC(C(O)(c2ccc(F)c(F)c2)c2ccc(F)c(F)c2)CC1` the value was “Not significantly different from negative control group”.
Take `C[S+]([O-])c1ccc(OCCCN2CCC(C(O)(c3ccc(F)cc3)c3ccc(F)cc3)CC2)cc1` (stereo unspecified): the PFA entry in the test with Rattus norvegicus [4] was “Activity between positive and negative control groups”; with Rattus norvegicus [3], “Activity between positive and negative control groups”.
Consider `CC(C)c1ccc(OCCCN2CCC(C(O)(c3ccc(F)cc3)c3ccc(F)cc3)CC2)cc1`, for which the PFA entry with Rattus norvegicus [4] was “Activity between positive and negative control groups”; with Rattus norvegicus [3], “Activity between positive and negative control groups”.
Regarding `COc1cc(C(C)=O)ccc1OCCCN1CCC(C(O)(c2ccc(F)cc2)c2ccccn2)CC1` (stereo unspecified), in the test on Rattus norvegicus [2], the PFA entry is “Activity between positive and negative control groups”.
On to `COc1ccc(C(O)(c2ccc(OC)cc2)C2CCN(CCCOc3ccc(C(C)=O)cc3OC)CC2)cc1`, for which the PFA result in the test with Rattus norvegicus [1] is “Not significantly different from negative control group”.
On to `COc1cc(C(C)=O)ccc1OCCCN1CCN(C(=O)c2ccccc2)CC1`, for which, in the test on Rattus norvegicus [1], the PFA result is “Not significantly different from negative control group”.
In the case of `OC(CCCN1CCC(C(O)(c2ccc(F)cc2)c2ccc(F)cc2)CC1)c1ccccc1` (stereo unspecified), the PFA result in the test on Rattus norvegicus [2] is “Activity between positive and negative control groups”; in the test on Rattus norvegicus [3], “Activity between positive and negative control groups”.
In the case of `OC(c1ccc(F)cc1)(c1ccc(F)cc1)C1CCN(CCCOc2ccc(Cl)cc2)CC1`, in the test with Rattus norvegicus [1], the PFA result is “Not significantly different from negative control group”.
As for `OC(c1ccc(F)cc1)(c1ccc(F)cc1)C1CCN(CCCNc2ccccc2)CC1`, the PFA result in the test on Rattus norvegicus [2] is “Activity between positive and negative control groups”; in the test with Rattus norvegicus [3], “Activity between positive and negative control groups”.
Turning to `COc1cc(C(C)=O)ccc1OCCCN1CCC(CC(O)(c2ccc(F)cc2)c2ccc(F)cc2)C1` (stereo unspecified), the PFA entry in the test on Rattus norvegicus [1] is “Not significantly different from negative control group”.
As to `COc1cccc(OCCCN2CCC(C(O)(c3ccc(F)cc3)c3ccc(F)cc3)CC2)c1`, the PFA entry was “Activity between positive and negative control groups” in the test on Rattus norvegicus [4]; “Activity between positive and negative control groups” in the test with Rattus norvegicus [3].
Turning to `O=S(=O)(CCCN1CCC(C(O)(c2ccc(F)cc2)c2ccc(F)cc2)CC1)c1ccccc1`, in the test with Rattus norvegicus [1], the PFA entry was “Not significantly different from negative control group”.
Turning to `COc1cc(C(C)=O)ccc1OCCCN1CCC(C(OC)(c2ccccc2)c2ccccc2)CC1`, the PFA entry with Rattus norvegicus [2] was “Activity between positive and negative control groups”.
On to `COc1cc(OCCCN2CCC(C(O)(c3ccc(F)cc3)c3ccc(F)cc3)CC2)ccc1C(C)=O`, for which the PFA entry in the test with Rattus norvegicus [3] is “Activity between positive and negative control groups”.
Consider `COc1cc(C(C)=O)ccc1OCCCN1CCC(C(C(N)=O)(c2ccccc2)c2ccccc2)CC1`, for which the PFA entry with Rattus norvegicus [1] was “Not significantly different from negative control group”.
In the case of `COc1cc(C(C)=O)ccc1OCCCN1CCCC(C(O)(c2ccc(F)cc2)c2ccc(F)cc2)C1` (stereo unspecified), the PFA entry with Rattus norvegicus [1] is “Not significantly different from negative control group”.
In the case of `COc1cc(C(C)=O)ccc1OCCCN1CCCC(CC(O)(c2ccc(F)cc2)c2ccc(F)cc2)C1` (stereo unspecified), the PFA entry in the test on Rattus norvegicus [1] is “Not significantly different from negative control group”.
Still for that read-out and setting: for `COc1cc(C(C)=O)ccc1OCCCN1CCC(C(O)(c2ccc(Cl)cc2)c2ccc(Cl)cc2)CC1` the value was “Not significantly different from negative control group”.
Regarding `COc1cccc(OC)c1OCCCN1CCC(C(O)(c2ccc(F)cc2)c2ccc(F)cc2)CC1`, the PFA result in the test with Rattus norvegicus [4] is “Activity between positive and negative control groups”; in the test on Rattus norvegicus [3], “Activity between positive and negative control groups”.
For `COc1cc(C(C)=O)ccc1OCCCN1CCC(C(O)(Cc2ccc(F)cc2)c2ccc(F)cc2)CC1` (stereo unspecified), the PFA entry with Rattus norvegicus [1] is “Not significantly different from negative control group”.
As for `CCOC(=O)C(=O)Nc1ccc(OCCCN2CCC(C(O)(c3ccc(F)cc3)c3ccc(F)cc3)CC2)cc1`, the PFA result in the test on Rattus norvegicus [1] is “Not significantly different from negative control group”.
Still for that read-out and setting: for `COc1cc(C(C)=O)ccc1OCCCN1CCC(CC(O)(c2ccc(F)cc2)c2ccc(F)cc2)CC1` the value was “Not significantly different from negative control group”.
For `COC(=O)c1ccc(OCCCCN2CCC(C(O)(c3ccc(F)cc3)c3ccc(F)cc3)CC2)cc1`, the PFA entry in the test with Rattus norvegicus [4] is “Activity between positive and negative control groups”; in the test with Rattus norvegicus [3], “Activity between positive and negative control groups”.
Consider `CCN(CCCOc1ccc(C(C)=O)cc1OC)CCCC(O)(c1ccc(F)cc1)c1ccc(F)cc1`, for which the PFA entry in the test on Rattus norvegicus [1] was “Not significantly different from negative control group”.
Take `COc1cc(C(C)=O)ccc1OCCCCCCN1CCC(C(O)(c2ccc(F)cc2)c2ccc(F)cc2)CC1`: the PFA entry in the test with Rattus norvegicus [1] was “Not significantly different from negative control group”.
As for `OC(c1ccc(F)cc1)(c1ccc(F)cc1)C1CCN(CCCC2OCOC2c2ccccc2)CC1` (stereo unspecified), the PFA entry in the test with Rattus norvegicus [3] is “Activity between positive and negative control groups”.
Turning to `CC(=O)c1ccccc1OCCCN1CCC(C(O)(c2ccc(F)cc2)c2ccc(F)cc2)CC1`, the PFA result in the test on Rattus norvegicus [4] was “Activity between positive and negative control groups”; in the test with Rattus norvegicus [3], “Activity between positive and negative control groups”.
As for `COc1cc(C(C)=O)ccc1OCCCN1CCC(C(O)(c2ccc(C)cc2)c2ccc(C)cc2)CC1`, the PFA entry in the test with Rattus norvegicus [1] is “Not significantly different from negative control group”.
Take `O=C(c1ccccc1)c1ccc(OCCCN2CCC(C(O)(c3ccc(F)cc3)c3ccc(F)cc3)CC2)cc1`: the PFA entry in the test on Rattus norvegicus [4] is “Activity between positive and negative control groups”; with Rattus norvegicus [3] it was “Activity between positive and negative control groups”.
In the case of `COc1cc(C(C)=O)ccc1OCCCN1CCN(Cc2ccccc2)CC1`, in the test on Rattus norvegicus [1], the PFA entry is “Not significantly different from negative control group”.
As for `CCOC(=O)c1cccc(OCCCN2CCC(C(O)(c3ccc(F)cc3)c3ccc(F)cc3)CC2)c1`, the PFA result in the test on Rattus norvegicus [4] is “Activity between positive and negative control groups”; with Rattus norvegicus [3], “Activity between positive and negative control groups”.
